Results as given in US8828954B2, “Use for scopolin and derivatives thereof” (Yonsei University Technology Holdings, Inc., priority 2010, dated 2014).
Marks after values point to notes of the source that are not given here.

Tests used:
acetylcholine esterase = acetylcholine esterase (Homo sapiens, UniProt P22303); conditions: J Med Chem 2004; cited from earlier work
PPARγ2 = assay: RT-PCR of PPARγ2 mRNA in epididymal fat tissue; type: in vivo, mouse; conditions: SPID vs HFD, relative to GAPDH, FIG. 4
Experimental: (§1) Accordingly, to identify that scopolin inhibits directly obesity-related gene expressions, the inventors examined whether obesity-related gene is expressed according to scopolin treatment through RNA was isolated from epididymal fat tissues obtained in the example 3 and performed RT-PCR.
(§2) First, after adding 1 mL of Trizol agent per 0.1 g of epididymal fat tissues, the mixture was homogenized and centrifuged at 12,000×g for 10 min at 4° C. The supernatant was transferred to a new tube and 200 μl of chloroform was added to the tube, followed by vortexing. The same procedure was repeated twice and then the supernatant was transferred to a new tube, followed by addition of isopropanol and the supernatant at 1:1 ratio. The mixture was vigorously shaken 10 times and then incubated for 10 min at room temperature, followed by centrifugation at 12,000×g for 10 min at 4° C. to remove the supernatant. After adding 1 mL of 70% ethanol to the remaining pellet, it was centrifuged at 7,500×g for 5 min at 4° C. After removing the ethanol, the RNA pellet contained in the tube was dried for 5 min at 4° C. and dissolved in nuclease-free water. The RNA concentration of sample was measured at a wavelength of 260 nm and 280 nm using a UV/VIS spectrophotometer (Beckman coulter, DU730) and the integrity of RNA sample was verified by agarose gel electrophoresis. […]

aP2 = assay: RT-PCR of aP2 mRNA in epididymal fat tissue; type: in vivo, mouse; conditions: SPID vs HFD, relative to GAPDH, FIG. 4
Experimental: as §1, §2

3T3-L1 cells = assay: Inhibition of adipocyte differentiation in 3T3-L1 cells (Oil Red O staining); type: cell-based, mouse; conditions: scopolin 0.1, 1, 10, 50 and 100 μM, 14 days, FIG. 1
Experimental: Mouse adipocyte cell line (3T3-L1) was used to investigate the effect of scopolin on differentiation and growth of adipocytes. The preadipocytes, 3T3-L1 cells, were seeded on a 12-well plate and cultured to confluency using Dulbecco's modified Eagle's medium (DMEM) containing 1% penicillin-streptomycin, 1% non-essential amino acid and 10% fatal bovine serum (FBS), in a 5% CO2 incubator at 37° C. The 3T3-L1 cells grown to confluency were cultured for 2 days in MDI medium containing 0.5 mM isobutylmethylxanthine, 1 μM dexamethasone and 1 μg/mL insulin to differentiate them into differention adipocytes. Then, the cells were further cultivated in DMEM containing 1 μg/mL insulin to differentiate them into mature adipocytes. The cells were further cultured for 10 more days while replacing DMEM every other day to obtain fully differentiated adipocytes.
From the first day when MDI was added to the 3T3-L1 cells, scopolin was treated at concentrations of 0.1, 1, 10, 50 and 100 μM with 2-day intervals. Scopolin was used after being dissolved in DMSO. Only DMSO was added to the negative control group. […] In order to measure the level of triglyceride contained in the differentiated 3T3-L1 cells, the stained lipid droplets were dissolved in 1 mL of isobutanol and optical density (OD) value was measured at 600 nm.

[1] = Liver weight and liver tissue lipid levels in high-fat diet fed mice; type: in vivo, mouse; conditions: SPID group, 10 weeks
Experimental: (§3) The obesity-inducing control diet used in the present test was high-fat diet (HFD: 40% fat calorie, 17 g lard+3% corn oil/100 g diet). Diets supplemented with scopolin had the same composition as HF, except that each derivative was included at 0.02%. The diabetic drug metformin was added at 0.1% or the hyperlipidemic drug atorvastatin was added at 0.01% to HFD as controls. The normal diet (ND) was prepared according to the AIN-76 rodent diet composition (American Institute of Nutrition, Report of the American Institute of Nutrition ad hoc committee on standards for nutritional studies. J. Nutr., 107: 1340-1348, (1977)) (Table 1).
(§4) 5-week-old male […] mice (Orient, Korea) were accustomed to the laboratory environment for 1 week while feeding solid feed. Then, they were randomly divided into high-fat diet and test groups and bred for a total of 10 weeks. The diet was given between 10 and 11 a.m. every day together with water. Food intake was measured every day and body weight was measured once a week. In order to avoid transient body weight increase after feed intake, body weight was measured 2 hours after removing the feed.
(§5) After fasting the test animal for at least 12 hours and anesthetizing with diethyl ether, blood, liver and visceral fat (epididymal fat, perirenal fat, mesenteric fat and retroperitoneal fat) were taken and weighed after washing with 0.1 M PBS (pH 7.4). Blood taken from the abdominal aorta was centrifuged at 1000×g for 15 minutes for the separation of plasma.
In addition, lipids were extracted from the liver tissue according to Folch et al.'s method (Folch J, Lees M, Sloane Stanley G H. A simple method for the isolation and purification of total lipides from animal tissues. J Biol. Chem. 1957; 226:497-509). After adding 1 mL of distilled water to 0.25 g of the liver tissue, the liver tissue was homogenized using a Polytron homogenizer (IKA-Werke GmbH & Co., Ultra-Turrax, Staufen, Germany). After adding 5 mL of chloroform:methanol solution (2:1, v/v) to the homogenate and mixing well, the mixture was centrifuged at 1000×g for 10 minutes. After adding 2 mL of chloroform:methanol solution (2:1, v/v) again to the supernatant, the same procedure was repeated to completely separate the lipid components of the liver. After adding 3 mL of chloroform:methanol:0.05% CaCl2 (3:48:47, v/v/v) solution to the remaining pellets and mixing well for 1 minute, followed by centrifugation at 1000×g for 10 minutes, the resulting pellets were completely dried with nitrogen gas. The dried lipids were dissolved in 1 mL of methanol and then analyzed. The commercially available kits (Bio Clinical System, Korea) were used to measure the levels of triglyceride, cholesterol and free fatty acids of the liver tissue.

C/EBPα = assay: RT-PCR of C/EBPα mRNA in epididymal fat tissue; type: in vivo, mouse; conditions: SPID vs HFD, relative to GAPDH, FIG. 4
Experimental: as §1, §2

[2] = test system: mouse intraperitoneal macrophages; conditions: macrophages stimulated with ionophore; J Nat Prod 1996; cited from earlier work
UCP3 = assay: RT-PCR of UCP3 mRNA in epididymal fat tissue; type: in vivo, mouse; conditions: HFD-induced decrease, relative to GAPDH, FIG. 5
Experimental: as §1, §2

[3] = Plasma lipid and glucose levels in high-fat diet fed mice; type: in vivo, mouse; conditions: SPID group, 10 weeks
Experimental: as §3, §4, §5
(§6) After 10 weeks of breeding, total cholesterol, HDL-cholesterol, triglyceride and glucose levels in the plasma and lipid levels in the liver tissue were measured as follows: Total cholesterol, HDL-cholesterol, triglyceride, free fatty acid and glucose levels in the plasma were measured twice for each using a commercially available kit (Bio Clinical System). The level of LDL+VLDL in plasma was calculated by subtracting HDL level from the total cholesterol level. The activities of ALT (alanine aminotransferase) and AST (aspartate aminotransferase) used as liver function indicator were measured using a commercially available kit (Bio Clinical System, Korea).

[4] = ALT and AST activities (liver function indicators) in high-fat diet fed mice; type: in vivo, mouse; conditions: SPID group, 10 weeks
Experimental: as §3, §4, §5, §6

[5] = Body weight and visceral fat weight in high-fat diet fed mice, 10 weeks; type: in vivo, mouse; conditions: 0.02% scopolin in high-fat diet
Experimental: as §3, §4, §5

UCP1 = assay: RT-PCR of UCP1 mRNA in epididymal fat tissue; type: in vivo, mouse; conditions: HFD-induced decrease, relative to GAPDH, FIG. 5
Experimental: as §1, §2

acetylcholine esterase, sequence (P22303 32-614): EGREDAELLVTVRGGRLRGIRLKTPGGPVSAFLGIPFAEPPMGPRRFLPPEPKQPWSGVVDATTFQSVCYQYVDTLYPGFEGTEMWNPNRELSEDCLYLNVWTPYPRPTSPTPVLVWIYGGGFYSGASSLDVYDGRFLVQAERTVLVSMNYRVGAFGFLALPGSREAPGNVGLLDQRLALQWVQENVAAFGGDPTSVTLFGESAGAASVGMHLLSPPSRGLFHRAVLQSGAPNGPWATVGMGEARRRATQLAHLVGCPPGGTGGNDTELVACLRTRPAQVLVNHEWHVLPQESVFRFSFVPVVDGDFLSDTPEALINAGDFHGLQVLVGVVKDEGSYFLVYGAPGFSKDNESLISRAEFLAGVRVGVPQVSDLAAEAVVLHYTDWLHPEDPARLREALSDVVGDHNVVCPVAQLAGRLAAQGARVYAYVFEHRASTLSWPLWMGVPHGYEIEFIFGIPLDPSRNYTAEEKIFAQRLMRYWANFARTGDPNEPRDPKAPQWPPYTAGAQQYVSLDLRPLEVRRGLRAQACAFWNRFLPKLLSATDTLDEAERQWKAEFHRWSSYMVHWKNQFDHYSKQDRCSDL

COc1cc2ccc(=O)oc2cc1OC1OC(CO)C(O)C(O)C1O [scopolin, 7-(beta-D-glucopyranosoyloxy)-6-methoxy-2H-1-benzopyran-2-one]
acetylcholine esterase inhibition (acetylcholine esterase): inhibits acetylcholine esterase
PPARγ2 mRNA expression level (PPARγ2): significantly reduced expressions
aP2 mRNA expression level (aP2): significantly reduced expressions
differentiation of the preadipocytes (Oil Red O staining) (3T3-L1 cells): reduced the differentiation of the preadipocytes in a concentration-dependent manner
decrease of cholesterol in liver tissue as compared to HFD [1]: 21%
decrease of free fatty acid in liver tissue as compared to HFD [1]: 33%
decrease of triglyceride in liver tissue as compared to HFD [1]: 22%
reduction of absolute weight of liver as compared to HFD [1]: 23%
Liver weight ([1]; mean±SEM, n=8): 1.7 ± 0.14^b g
Cholesterol ([1]; liver tissue, mean±SEM, n=8): 102.9 ± 5.4^b μmol/g
Free fatty acid ([1]; liver tissue, mean±SEM, n=8): 33.6 ± 4.6^b μEq/g
Triglyceride ([1]; liver tissue, mean±SEM, n=8): 55.6 ± 5.3^b μmol/g
C/EBPα mRNA expression level (C/EBPα): significantly reduced expressions
eicosanoid release [2]: suppression of eicosanoid release
UCP3 mRNA expression level (UCP3): significantly reversed
lower plasma level of LDL+VLDL cholesterol as compared to HFD [3]: 30%
lower plasma level of free fatty acid as compared to HFD [3]: 27%
lower plasma level of total cholesterol as compared to HFD [3]: 23%
lower plasma level of triglyceride as compared to HFD [3]: 28%
reduction of the fasting blood sugar level as compared to HFD [3]: 16%
Free fatty acid ([3]; plasma, mean±SEM, n=8): 635 ± 65.6^b μEq/g
Total cholesterol ([3]; plasma, mean±SEM, n=8): 5.07 ± 0.26^b mmol/l
Triglyceride ([3]; plasma, mean±SEM, n=8): 0.65 ± 0.07^b mmol/l
LDL + VLDL cholesterol ([3]; plasma, total cholesterol minus HDL): 3.88 ± 0.27^b mmol/l
Glucose ([3]; plasma, fasting, mean±SEM, n=8): 7.51 ± 0.32^b mmol/l
decrease of plasma activity of ALT as compared to HFD [4]: 46%
decrease of plasma activity of AST as compared to HFD [4]: 41%
ALT (alanine aminotransferase) ([4]; plasma activity, mean±SEM, n=8): 5.55 ± 0.78^b IU/L
AST (aspartate aminotransferase) ([4]; plasma activity, mean±SEM, n=8): 5.80 ± 0.43 IU/L
decrease of cumulative body weight gain as compared to HFD [5]: 22%
decrease of final body weight as compared to HFD [5]: 10%
reduction of epididymal fat-pad weight as compared to HFD [5]: 29%
reduction of mesenteric fat-pad weight as compared to HFD [5]: 28%
reduction of perirenal fat-pad weight as compared to HFD [5]: 33%
reduction of retroperitoneal fat-pad weight as compared to HFD [5]: 31%
reduction of total visceral fat weight as compared to HFD [5]: 30%
UCP1 mRNA expression level (UCP1): significantly reversed
